In data set [1] the test system is Slc: ddy male mice. Kind of data set: Acute toxicity. It counts as in vivo. As to conditions: oral administration, death rate after 7 days. How it is done: (§1) In each group, 6 Slc: ddy male mice weighing 25 to 29 g (6 weeks) were employed. Each compound was administered orally thereto and a value of acute toxicity was evaluated with death rate after 7 days.
Another data set deals with Slc-ddy male mice. Nature of the data set: Activity on hypoxia induced in decapitation of mice (gasping time). The format is in vivo. Also noted: dose or concentration left out as unconfirmed. The settings on record: gasping time after decapitation, one hour after oral administration. How it is done:
In each group, 3 Slc-ddy male mice (4 weeks) were employed. Each test compound was suspended or dissolved in a 0.5 % methyl cellulose solution. After the concentration was adjusted, the dose became […], the solution was administered orally. One hour after the administration, mice were decapitated and gasping time was measured.
(§2) Inhibition rate was calculated by the following formula. [formula]

For data set [2], the system named is Slc: ddy male mice. Nature of the data set: Activity on stress ulcers (restraint and water immersion). It counts as in vivo. The settings on record: length of ulcer in glandular stomach; 30 mg/kg orally; restrained and immersed in water of 23°C for 7 hours. The method, then: In each group, 5 Slc: ddy male mice (6 weeks) were employed. Each test compound was kneaded with Tween-80 followed by adding a 0.5 % solution of gum arabic to prepare 30 mg/10 mℓ solution (solution containing 1.5 % Tween-80 and 0.5 % gum arabic). Then, the preparation was administered orally in a rate of 30 mg/kg. After the administration, the mice were restrained and immersed in a water tank of 23°C for 7 hours. Then, length of the ulcer in the glandular stomach was measured by a stereoscopic microscope (x 10).

The next data set concerns platelet aggregation. Kind of data set: Inhibitory activity on platelet aggregation (turbidimetry). The format is cell-based, New Zealand White male rabbits. As to conditions: for Inhibition rate (%) ADP aggregation: 0.6 µg/mℓ ADP; for Inhibition rate (%) PAF aggregation: 5 x 10⁻⁹M PAF; for Inhibition rate (%) Collagen aggregation: 2 µg/mℓ collagen. How it is done:
Blood was exsanguinated from New Zealand White male rabbits weighing from 2.5 to 3.0 kg and subjected to the test. Each test compound was dissolved in ethanol and prepared to be 1 x 10⁻⁵, 1 x 10⁻⁶ or 1 x 10⁻⁷M respectively. Each aggregation response was measured by turbidimetry. Concentration of aggregating agent was 2 µg/mℓ of collagen, 0.6 µg/mℓ of adenosine 5'-diphosphate (ADP) or 5 x 10⁻⁹M of platelet aggregating factor (PAF).
as §2

Data set [3] concerns Aortae abdominalis of male Wister rats. Nature of the data set: Anti-norepinephrine activity on rat abdominal aorta strip preparations (auto-Magnus apparatus). The settings on record: tension by norepinephrine (10⁻⁷M) regarded as 100. How it is done:
Aortae abdominalis of male Wister rats (8-12 weeks) were delivered and cut in spiral-shape to be strip preparations. Each test compounds was disolved in DMSO. Then, the solution was diluted with distilled water and prepared to be desired concentration. Using an auto-Magnus apparatus, as to the vasoconstriction after adding norepinephrine, contractive forces were measured under the existence of the test compounds.

The nature of a further data set: Acute toxicity. It counts as in vivo, mice. The settings on record: mouse, in vivo; oral administration, death rate after 7 days; read-out: LD₅₀. How it is done: as §1

These results are taken from patent EP0503079A1, “PYRIDAZINONE-SUBSTITUTED ETHYNYLPHENYL DERIVATIVE AND REMEDY FOR CIRCULATORY ORGAN DISEASE CONTAINING THE SAME AS ACTIVE INGREDIENT” (KAKEN PHARMACEUTICAL CO., LTD., priority 1990, dated 1992).

As to “2,6-dimethyl-4-(3-ethynylphenyl)-3-methoxycarbonyl-5-{4-(6-oxo-1,4,5,6-tetrahydropyridazinon-3-yl)phenyl}aminocarbonyl-1,4-dihydropyridine [Compound 1]”, the “LD₅₀” value in the data set with Slc: ddy male mice [1] is 1000 mg/kg. In addition, the “Inhibition rate (%)” value in the data set on Slc-ddy male mice was found to be 28.6%; with Slc: ddy male mice [2] it was 83.0%. The “Inhibition rate (%) ADP aggregation” value turned out to be 94% in the data set on platelet aggregation (compound 10⁻⁵ M), 70% in the data set with platelet aggregation (compound 10⁻⁶ M) and 21% with platelet aggregation (compound 10⁻⁷ M). In addition, the “Inhibition rate (%) PAF aggregation” value in the data set on platelet aggregation (compound 10⁻⁵ M) was determined as 64%. For the same molecule, the “Inhibition rate (%) Collagen aggregation” value with platelet aggregation (compound 10⁻⁶ M) is listed as 94%; in the data set on platelet aggregation (compound 10⁻⁷ M), 21%. For the same molecule, the Contractive force in data set [3] (compound 10⁻⁷ M) worked out at 15.7; in data set [3] (compound 10⁻⁸ M) it was 87.4; in data set [3] (compound 10⁻⁹ M), 102.8.
Regarding “2,6-dimethyl-4-{3-(3-hydroxy-3-methyl)-1-butyn-1-yl)}phenyl-3-methoxycarbonyl-5-{4-(6-oxo-1,4,5,6-tetrahydropyridazinon-3-yl)phenyl}aminocarbonyl-1,4-dihydropyridine [Compound 7]”, the “LD₅₀” value with Slc: ddy male mice [1] is 800 mg/kg. Besides, the “Inhibition rate (%)” value in the data set on Slc-ddy male mice is 19.1%; in the data set with Slc: ddy male mice [2] it was 88.8%. Also, the “Inhibition rate (%) ADP aggregation” value amounted to 89% with platelet aggregation (compound 10⁻⁵ M), 73% in the data set on platelet aggregation (compound 10⁻⁶ M) and 24% in the data set with platelet aggregation (compound 10⁻⁷ M). The “Inhibition rate (%) PAF aggregation” value with platelet aggregation (compound 10⁻⁵ M) is reported as 40%. Further, the “Inhibition rate (%) Collagen aggregation” value came to 92% in the data set with platelet aggregation (compound 10⁻⁶ M) and 25% in the data set with platelet aggregation (compound 10⁻⁷ M). For the same molecule, the Contractive force is on record as 16.3 in data set [3] (compound 10⁻⁷ M), 89.2 in data set [3] (compound 10⁻⁸ M) and 100.3 in data set [3] (compound 10⁻⁹ M).
As to “2,6-dimethyl-4-{3-(4-hydroxy-1-butyn-1-yl)}phenyl-3-methoxycarbonyl-5-{4-(6-oxo-1,4,5,6-tetrahydropyridazinon-3-yl)phenyl}aminocarbonyl-1,4-dihydropyridine [Compound 6]”, the “LD₅₀” value in the data set with Slc: ddy male mice [1] was 950 mg/kg. Moreover, the “Inhibition rate (%)” value with Slc-ddy male mice was determined as 21.5%. The “Inhibition rate (%) ADP aggregation” value in the data set on platelet aggregation (compound 10⁻⁵ M) is reported as 93%; in the data set on platelet aggregation (compound 10⁻⁶ M), 68%; in the data set on platelet aggregation (compound 10⁻⁷ M) it was 22%. For the same molecule, in the data set on platelet aggregation (compound 10⁻⁵ M), the “Inhibition rate (%) PAF aggregation” value was found to be 69%. The “Inhibition rate (%) Collagen aggregation” value in the data set on platelet aggregation (compound 10⁻⁶ M) amounted to 93%; in the data set with platelet aggregation (compound 10⁻⁷ M) it was 22%. The Contractive force in data set [3] (compound 10⁻⁷ M) turned out to be 10.8; in data set [3] (compound 10⁻⁸ M), 70.2; in data set [3] (compound 10⁻⁹ M) it was 90.5.
As for `C#Cc1cccc(C2C(C(=O)Nc3ccc(C4=NNC(=O)CC4)cc3)=C(C)NC(N)=C2C(=O)OCC)c1` (stereo not shown) [Compound 12, 2-amino-3-ethoxycarbonyl-4-(3-ethynylphenyl)-6-methyl-5-{4-(6-oxo-1,4,5,6-tetrahydropyridazinon-3-yl)phenyl)aminocarbonyl-1,4-dihydropyridine], in “Acute toxicity”, the LD50 at 168 h was 1200 mg/kg. The “Inhibition rate (%)” value with Slc-ddy male mice came out at 30.2%; in the data set with Slc: ddy male mice [2], 98.7%. The results for the “Inhibition rate (%) ADP aggregation” value in the data set on platelet aggregation (compound 10⁻⁵ M), in the data set with platelet aggregation (compound 10⁻⁶ M) and in the data set on platelet aggregation (compound 10⁻⁷ M) were 96%, 81% and 35%, respectively. The “Inhibition rate (%) PAF aggregation” value with platelet aggregation (compound 10⁻⁵ M) is 72%. Further, the “Inhibition rate (%) Collagen aggregation” value turned out to be 96% in the data set with platelet aggregation (compound 10⁻⁶ M) and 33% in the data set on platelet aggregation (compound 10⁻⁷ M). In addition, the Contractive force in data set [3] (compound 10⁻⁷ M) is recorded as 10.3; in data set [3] (compound 10⁻⁸ M), 69.4; in data set [3] (compound 10⁻⁹ M), 90.2.
In the case of `CCOC(=O)C1=C(C)NC(C)=C(C(=O)Nc2ccc(C3=NNC(=O)CC3)cc2)C1c1cc(C#CC(C)(C)O)ccc1OC` (stereo not shown) [Compound 17, 2,6-dimethyl-4-{3-(3-hydroxy-3-methyl)-1-butyn-1-yl-6-methoxy}phenyl-3-ethoxycarbonyl-5-{4-(6-oxo-1,4,5,6-tetrahydropyridazinon-3-yl)phenyl}aminocarbonyl-1,4-dihydropyridine], in “Acute toxicity”, the LD50 at 168 h turned out to be 1000 mg/kg. Further, the “Inhibition rate (%)” value in the data set with Slc-ddy male mice turned out to be 25.8%; with Slc: ddy male mice [2] it was 79.3%. Moreover, the “Inhibition rate (%) ADP aggregation” value in the data set with platelet aggregation (compound 10⁻⁵ M) stood at 82%; in the data set on platelet aggregation (compound 10⁻⁶ M), 62%; in the data set on platelet aggregation (compound 10⁻⁷ M), 18%. In the data set with platelet aggregation (compound 10⁻⁵ M), the “Inhibition rate (%) PAF aggregation” value is recorded as 49%. Also, the “Inhibition rate (%) Collagen aggregation” value came out at 100% with platelet aggregation (compound 10⁻⁶ M) and 30% in the data set with platelet aggregation (compound 10⁻⁷ M). Besides, the Contractive force worked out at 8.9 in data set [3] (compound 10⁻⁷ M), 70.1 in data set [3] (compound 10⁻⁸ M) and 87.7 in data set [3] (compound 10⁻⁹ M).
With `CCOC(=O)C1=C(N)NC(C)=C(C(=O)Nc2ccc(C3=NNC(=O)CC3)cc2)C1c1cccc(C#CC(C)(C)O)c1` (stereo not shown) [Compound 24, 2-amino-4-{3-(3-hydroxy-3-methyl)-1-butyn-1-yl}phenyl-3-ethoxycarbonyl-6-methyl-5-{4-(6-oxo-1,4,5,6-tetrahydropyridazinon-3-yl)phenyl}aminocarbonyl-1,4-dihydropyridine], in the data set “Acute toxicity”, the LD50 at 168 h turned out to be 1100 mg/kg. The “Inhibition rate (%)” value in the data set on Slc-ddy male mice stood at 24.2%. The “Inhibition rate (%) ADP aggregation” value came to 92% in the data set on platelet aggregation (compound 10⁻⁵ M), 70% in the data set on platelet aggregation (compound 10⁻⁶ M) and 27% in the data set on platelet aggregation (compound 10⁻⁷ M). The “Inhibition rate (%) PAF aggregation” value with platelet aggregation (compound 10⁻⁵ M) is on record as 60%. Also, the “Inhibition rate (%) Collagen aggregation” value with platelet aggregation (compound 10⁻⁶ M) was 90%; in the data set on platelet aggregation (compound 10⁻⁷ M) it was 29%. Moreover, the Contractive force in data set [3] (compound 10⁻⁷ M) is given as 11.1; in data set [3] (compound 10⁻⁸ M) it was 72.4; in data set [3] (compound 10⁻⁹ M) it was 88.8.
`C#Cc1cccc(C2C(C(=O)Nc3ccc(C4=NNC(=O)CC4CC)cc3)=C(C)NC(N)=C2C(=O)OCCOC)c1` (stereo not shown) [Compound 25, 2-amino-4-(3-ethynylphenyl)-3-methoxyethoxycarbonyl-6-methyl-5-{4-(4-ethyl-6-oxo-1,4,5,6-tetrahydropyridazinon-3-yl)phenyl}aminocarbonyl-1,4-dihydropyridine]: the LD50 at 168 h in “Acute toxicity” came to 1000 mg/kg. Also, the “Inhibition rate (%)” value in the data set with Slc-ddy male mice is given as 28.3%; in the data set on Slc: ddy male mice [2] it was 94.3%. In addition, the results for the “Inhibition rate (%) ADP aggregation” value in the data set on platelet aggregation (compound 10⁻⁵ M), in the data set with platelet aggregation (compound 10⁻⁶ M) and with platelet aggregation (compound 10⁻⁷ M) were 90%, 69% and 29%, respectively. Moreover, the “Inhibition rate (%) PAF aggregation” value in the data set with platelet aggregation (compound 10⁻⁵ M) came out at 62%. The “Inhibition rate (%) Collagen aggregation” value with platelet aggregation (compound 10⁻⁶ M) is listed as 91%; in the data set on platelet aggregation (compound 10⁻⁷ M), 30%. Moreover, the Contractive force in data set [3] (compound 10⁻⁷ M) came to 12.1; in data set [3] (compound 10⁻⁸ M), 70.9; in data set [3] (compound 10⁻⁹ M), 91.5.
